# Laboratory results from patent US20230381142A1, “ANTILEISHMANIAL COMPOUNDS, COMPOSITIONS AND USE THEREOF” (TRUSTEES OF BOSTON UNIVERSITY, priority 2022, published 2023).
# pEC50: −log10 of the molar value.
# Experiments:
# [1] = tested on: L. donovani intracellular amastigotes infecting THP-1 macrophages; assay: GSK intramacrophage L. donovani assay (LD AMMAC, inMac; Assay Conditions C); assay type: cell-based; conditions: Leishmania donovani; growth inhibition of L. donovani intracellular amastigotes infecting THP-1 macrophages; read-out: LD AMMAC EC50
# In short: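 L. donovani amastigotes within THP-1 macrophages; EC50 based on average intracellular amastigotes per infected cell (AMMAC). Infected-cell percentage (INFCELL) and host-cell number (MAC) also read, the latter as toxicity output.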
# [2] = tested on: host THP-1 macrophages; assay: GSK inMac assay, host cell toxicity readout (LD MAC); assay type: cell-based, human; conditions: Homo sapiens, THP-1, cytotoxicity against host THP-1 macrophages
# In short: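 Intramacrophage L. donovani assay in THP-1 macrophages; host toxicity taken from host cell number per well, giving MAC EC50. Run alongside amastigote-per-cell and infected-cell readouts in the same wells.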
# [3] = tested on: HepG2 cells; assay: HepG2 cytotoxicity; assay type: cell-based; conditions: Homo sapiens; toxicity against HepG2 cells
# Procedure: Given the literature precedents described above and the apparent narrow tolerance for R^3 substitutions observed in the primary screen compounds, a thorough and methodical assessment was undertaken of tolerated groups at the three points of diversity (R^1/R^2/R^3) for the core. At this stage of the project, all analogues were assessed using a battery of assays performed in-house at GlaxoSmithKline. For antileishmanial activity, GSK's inMac assay was utilized. This assay provides two readouts of compound potency: average number of intracellular amastigotes per infected cell (AMMAC) EC50, percentage of infected cells per well (INFCELL) EC50, as well as a toxicity output derived from the number of host cells (MAC EC50). In addition, compounds were assessed for toxicity against HepG2 cells (HEPG2 EC50). Here, AMMAC EC50 values were focused on for relative potency assessments. […] It should be noted that for all compounds assessed in this project, the measured toxicity against THP-1 macrophages either equaled or exceeded that of HepG2 hepatocytes, therefore the MAC SI is used here as the more conservative estimate of therapeutic index.
# [4] = Kinetic aqueous solubility by CLND; assay type: physicochemical; conditions: kinetic from dmso stock, high-throughput CLND
# Procedure: Solubility of compounds using ChemiLuminescent Nitrogen Detection (CLND) was measured as described. Solubility of compounds using Charged Aerosol Detection (CAD) was measured as described. Solubility of solid compounds in Fasted Simulated Intestinal Fluid (FaSSIF) was measured as described.
# [5] = Artificial membrane permeability (AMP); assay type: in vitro ADME; conditions: PAMPA, pH 7.4
# Procedure: Passive permeability of compounds via rate of permeation through an artificial phospholipid membrane at pH 7.4 was measured in a high-throughput format, in duplicate. A solution of 1.8% phosphatidylcholine in 1% decane was added to a 96-well Millicell filter plate along with 250 μL of 50 mM phosphate buffer, pH 7.4 on the donor side, and 100 μL of the same buffer solution on the receiver side. The assay plate was shaken for 45 minutes before adding test compounds. Test compounds were then added to the filter plate and then incubated at room temperature with shaking for three hours. The donor and receiver solutions were next transferred to a 384-well plate for analysis by LC/MS.
# [6] = biological target: human serum albumin (Homo sapiens, UniProt P02768); assay: Human serum albumin (HSA) binding, chromatographic; assay type: in vitro ADME
# Procedure: The percentage of compound bound to human serum albumin was measured using a chromatographic method as described. Briefly, each compound was assayed on an immobilized HSA column and gradient retention times measured, with chromatographic peak detection by UV. Each retention time was then converted to a % HSA bound value using a calibration set of compounds with a known % HSA binding.
# [7] = Property forecast index (PFI = ChromLogD7.4 + aromatic rings); assay type: physicochemical
# Procedure: At the outset of the project, compound 1 was evaluated against GSK's established criteria for antileishmanial compound advancement (Table 2). Some of these assessments were performed on racemic 1, while chiral separation was also pursued of the 1 racemate to determine the active enantiomer. […] Based on this promising profile, it progressed into medicinal chemistry optimization to better understand structure-activity relationships (SAR) toward improved potency, as well as structure-property relationships (SPR) with an eye toward reducing PFI and plasma protein binding.
# [8] = aqueous (not further specified)
# [9] = aqueous medium (not further specified)
# Chain of human serum albumin (P02768 25-609): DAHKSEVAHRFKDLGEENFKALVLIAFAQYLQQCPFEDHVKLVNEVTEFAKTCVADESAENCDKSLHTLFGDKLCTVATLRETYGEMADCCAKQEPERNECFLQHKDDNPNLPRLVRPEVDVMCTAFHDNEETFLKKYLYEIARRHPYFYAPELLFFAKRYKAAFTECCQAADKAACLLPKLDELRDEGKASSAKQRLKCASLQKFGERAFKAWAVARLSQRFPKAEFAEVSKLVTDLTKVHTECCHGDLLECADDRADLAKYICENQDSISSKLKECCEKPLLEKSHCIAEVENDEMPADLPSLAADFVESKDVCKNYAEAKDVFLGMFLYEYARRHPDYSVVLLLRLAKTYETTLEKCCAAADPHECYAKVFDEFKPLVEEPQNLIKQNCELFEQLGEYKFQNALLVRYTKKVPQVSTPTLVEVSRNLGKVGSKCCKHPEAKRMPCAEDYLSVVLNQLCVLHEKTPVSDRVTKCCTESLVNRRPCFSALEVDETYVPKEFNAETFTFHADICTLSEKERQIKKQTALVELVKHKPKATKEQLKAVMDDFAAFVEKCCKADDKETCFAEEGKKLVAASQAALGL
Structure (SMILES),pEC50 [1],solubility [4],Papp at 3 h [5],HSA Binding [6],PFI [7],"solubility [4, 8]","solubility [4, 9]",pEC50 [2],pEC50 [3]
COc1ccc(N2C(=O)c3[nH]nc(CCC(C)C)c3C2c2ccc(F)cc2)cc1 (stereo not drawn) [Compound 9],5.60,15 µM,10 ×10⁻⁶ cm/s,98.0%,9.1,–,–,4.50,4.10
COc1ccc(N2C(=O)c3[nH]nc(CC(C)(C)C)c3C2c2ccc(F)cc2)cc1 (stereo not drawn) [Compound 10],5.60,36 µM,17 ×10⁻⁶ cm/s,97.4%,9.0,–,–,4.60,4.40
C=CCCc1n[nH]c2c1C(c1ccc(F)cc1)N(c1ccc(OC)cc1)C2=O (stereo not drawn) [Compound 12],5.80,135 µM,41 ×10⁻⁶ cm/s,97.5%,8.1,–,–,5.49,4.30
C=C(C)CCc1n[nH]c2c1C(c1ccc(F)cc1)N(c1ccc(OC)cc1)C2=O (stereo not drawn) [Compound 13],6.30,52 µM,37 ×10⁻⁶ cm/s,96.8%,8.5,–,–,5.80,4.30
C=C(C)CCCc1n[nH]c2c1C(c1ccc(F)cc1)N(c1ccc(OC)cc1)C2=O (stereo not drawn) [Compound 14],5.20,17 µM,27 ×10⁻⁶ cm/s,97.9%,8.9,–,–,4.70,4.30
COc1ccc(N2C(=O)c3[nH]nc(CCc4ccccc4)c3C2c2ccc(F)cc2)cc1 (stereo not drawn) [Compound 15],5.20,6 µM,36 ×10⁻⁶ cm/s,98.0%,9.7,–,–,4.60,4.30
COc1ccc(N2C(=O)c3[nH]nc(-c4ccc5c(c4)CCC5)c3C2c2ccc(F)cc2)cc1 (stereo not drawn) [Compound 16],5.30,17 µM,13 ×10⁻⁶ cm/s,97.8%,10.6,–,–,5.10,4.60
COc1ccc(N2C(=O)c3[nH]nc(-c4ccc(CC(C)C)cc4)c3C2c2ccc(F)cc2)cc1 (stereo not drawn) [Compound 17],5.40,< 1 µM,34 ×10⁻⁶ cm/s,98.0%,11.4,–,–,5.10,4.80
CC(C)Cc1n[nH]c2c1C(c1ccc(F)cc1)N(c1ccc(O)cc1)C2=O (stereo not drawn) [Compound 18],5.30,–,28.5 ×10⁻⁶ cm/s,95.6%,7.1,≥ 430 µM,–,4.40,< 4.00
CCOc1ccc(N2C(=O)c3[nH]nc(CC(C)C)c3C2c2ccc(F)cc2)cc1 (stereo not drawn) [Compound 19],5.80,–,25 ×10⁻⁶ cm/s,97.5%,8.9,38 µM,–,4.70,4.30
CC(C)Cc1n[nH]c2c1C(c1ccc(F)cc1)N(c1ccc(OC(F)(F)F)cc1)C2=O (stereo not drawn) [Compound 20],5.49,–,29 ×10⁻⁶ cm/s,98.1%,9.8,5 µM,–,5.10,4.60
CCc1ccc(N2C(=O)c3[nH]nc(CC(C)C)c3C2c2ccc(F)cc2)cc1 (stereo not drawn) [Compound 22],5.40,–,< 1 ×10⁻⁶ cm/s,97.4%,9.7,9 µM,–,4.70,4.30
CC(C)Cc1n[nH]c2c1C(c1ccc(F)cc1)N(c1ccc(F)cc1)C2=O (stereo not drawn) [Compound 23],5.20,–,12 ×10⁻⁶ cm/s,97.7%,8.8,61 µM,–,4.60,4.30

# The next lines start with results.
pEC50 [1],solubility [4],Papp at 3 h [5],HSA Binding [6],PFI [7],"solubility [4, 8]","solubility [4, 9]",Structure (SMILES),pEC50 [2],pEC50 [3]
5.89,–,32 ×10⁻⁶ cm/s,97.9%,9.7,9 µM,–,"CC(C)Cc1n[nH]c2c1C(c1ccc(F)cc1)N(c1ccc(Br)cc1)C2=O (stereo not drawn) [Compound 24, 5-(4-bromophenyl)-4-(4-fluorophenyl)-3-isobutyl-4,5-dihydropyrrolo[3,4-c]pyrazol-6(1H)-one]",4.80,4.40
5.00,–,13 ×10⁻⁶ cm/s,97.9%,10.5,< 1 µM,–,CC(C)Cc1n[nH]c2c1C(c1ccc(F)cc1)N(c1ccc(C(C)(C)C)cc1)C2=O (stereo not drawn) [Compound 25],< 4.30,4.30
5.80,–,41 ×10⁻⁶ cm/s,97.5%,8.5,26 µM,–,COC(=O)c1ccc(N2C(=O)c3[nH]nc(CC(C)C)c3C2c2ccc(F)cc2)cc1 (stereo not drawn) [Compound 26],4.50,4.40
< 4.30,–,< 0.3 ×10⁻⁶ cm/s,95.2%,4.9,≥ 389 µM,–,CC(C)Cc1n[nH]c2c1C(c1ccc(F)cc1)N(c1ccc(C(=O)O)cc1)C2=O (stereo not drawn) [Compound 27],< 4.30,< 4.00
5.60,–,< 0.3 ×10⁻⁶ cm/s,96.3%,8.1,–,–,CC(C)Cc1n[nH]c2c1C(c1ccc(F)cc1)N(c1ccc(-n3ccnc3)cc1)C2=O (stereo not drawn) [Compound 28],< 4.30,< 4.00
4.70,–,59 ×10⁻⁶ cm/s,97.5%,8.5,–,240 µM,COc1ccccc1N1C(=O)c2[nH]nc(CC(C)C)c2C1c1ccc(F)cc1 (stereo not drawn) [Compound 29],< 4.30,4.10
4.90,–,37 ×10⁻⁶ cm/s,97.3%,8.4,–,64 µM,COc1cccc(N2C(=O)c3[nH]nc(CC(C)C)c3C2c2ccc(F)cc2)c1 (stereo not drawn) [Compound 30],4.50,4.20
5.00,–,26 ×10⁻⁶ cm/s,95.5%,8.0,–,194 µM,COc1ccc(N2C(=O)c3[nH]nc(CC(C)C)c3C2c2ccc(F)cc2)cn1 (stereo not drawn) [Compound 31],< 4.30,< 4.00
4.60,–,47 ×10⁻⁶ cm/s,93.4%,7.2,–,182 µM,CC(C)Cc1n[nH]c2c1C(c1ccc(F)cc1)N(c1cccnc1)C2=O (stereo not drawn) [Compound 32],< 4.30,< 4.00
4.70,–,20 ×10⁻⁶ cm/s,96.6%,8.5,–,219 µM,CC(C)Cc1n[nH]c2c1C(c1ccc(F)cc1)N(c1ccccn1)C2=O (stereo not drawn) [Compound 33],< 4.30,< 4.00
4.90,–,55 ×10⁻⁶ cm/s,98.2%,9.0,–,45 µM,COc1ccc(CN2C(=O)c3[nH]nc(CC(C)C)c3C2c2ccc(F)cc2)cc1 (stereo not drawn) [Compound 34],4.50,4.30
4.80,–,37 ×10⁻⁶ cm/s,97.2%,8.9,–,19 µM,Cc1ccc(CN2C(=O)c3[nH]nc(CC(C)C)c3C2c2ccc(F)cc2)o1 (stereo not drawn) [Compound 35],4.40,4.30
